Measured values from patent US12559529B2, “NPY2 receptor agonists” (Boehringer Ingelheim International GmbH, priority 2019, dated 2026).
*1 amine or outer side, *2 acyl side, *3 side chain or, on linkers, in order; H or OH if unused. Where a SMILES comes first, the peptide text is derived from it. Side-chain parts run from the residue outwards. The star is where a group is joined. C18 diacid = O=C(O)CCCCCCCCCCCCCCCCC(=O)*; γGlu = O=C(O)[C@H](CCC(=O)[*:2])N[*:1]; Isovaleryl = CC(C)CC(=O)*; AEEA = NCCOCCOCC(=O)O

Target: T1, Human Neuropeptide Y2 Receptor (Homo sapiens, UniProt P49146)
T1 construct: purchased CHEMICON HTS066M
T1 sequence (P49146 1-381): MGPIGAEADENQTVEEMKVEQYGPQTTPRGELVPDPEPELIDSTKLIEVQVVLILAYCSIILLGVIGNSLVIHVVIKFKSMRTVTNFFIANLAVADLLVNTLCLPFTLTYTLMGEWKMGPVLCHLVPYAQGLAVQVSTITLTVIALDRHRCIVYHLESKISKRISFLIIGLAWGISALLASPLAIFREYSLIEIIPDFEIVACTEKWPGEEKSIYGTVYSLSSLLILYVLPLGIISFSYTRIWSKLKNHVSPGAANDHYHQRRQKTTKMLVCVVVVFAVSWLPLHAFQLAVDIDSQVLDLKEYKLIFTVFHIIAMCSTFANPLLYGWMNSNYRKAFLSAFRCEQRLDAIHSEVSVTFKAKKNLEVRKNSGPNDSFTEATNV
Assay: Radioligand binding competition assay (RLB)
Conditions: Table 3; human 125I-PYY (1-36) 0.02 nM, Y2 receptor membranes; read-out: Ki
Method in brief: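 Filtration format; Y2R membrane prep 0.5 μg/well; buffer 50 mM HEPES/5 mM MgCl2/1 mM CaCl2/0.2% ovalbumin pH 7.4; 2 h RT, shaking. Harvest on PEI-soaked GF/C, ice-cold HEPES/500 mM NaCl washes, scintillation count. IC50 by nonlinear fit.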

SMILES | Ki [nM]
CC(C)CC(=O)N[C@@H](C)C(=O)N1CCC[C@H]1C(=O)N[C@@H](CCC(=O)O)C(=O)N[C@@H](CCCCNC(=O)COCCOCCNC(=O)COCCOCCNC(=O)CC[C@H](NC(=O)CCCCCCCCCCCCCCCCC(=O)O)C(=O)O)C(=O)N[C@@H](C)C(=O)N[C@@H](CCC(=O)O)C(=O)N[C@@H](CCC(=O)O)C(=O)N[C@@H](CC(=O)O)C(=O)N[C@@H](C)C(=O)N[C@@H](CCC(=O)O)C(=O)N1CCC[C@H]1C(=O)N[C@@H](CCC(=O)O)C(=O)N[C@@H](CCC(=O)O)C(=O)N[C@@H](CC(C)C)C(=O)N[C@@H](CCC(N)=O)C(=O)N[C@@H](CCCNC(=N)N)C(=O)N[C@@H](Cc1ccc(O)cc1)C(=O)N[C@@H](Cc1ccc(O)cc1)C(=O)N[C@H](C(=O)N[C@@H](CO)C(=O)N[C@@H](CC(C)C)C(=O)N[C@@H](CCCNC(=N)N)C(=O)N[C@@H](Cc1c[nH]cn1)C(=O)N[C@@H](Cc1ccc(O)cc1)C(=O)N[C@@H](Cc1ccc(O)cc1)C(=O)N[C@@H](CC(N)=O)C(=O)N[C@@H](Cc1c[nH]c2ccccc12)C(=O)N[C@@H](CC(C)C)C(=O)N[C@H](C(=O)N[C@@H](CCCNC(=N)N)C(=O)N[C@@H](CCC(N)=O)C(=O)N[C@@H](CCCNC(=N)N)C(=O)N[C@@H](Cc1ccc(O)cc1)C(N)=O)[C@@H](C)O)C(C)C [Compound 36, N{alpha-4}-(3-methylbutanoyl)-N{epsilon-7}-[2-(2-{2-[2-(2-{2-[(4S)-4-carboxy-4-(17-carboxyheptadecanamido)butanamido]ethoxy}ethoxy)acetamido]ethoxy}ethoxy)acetamido]-[4A,7K,8A,9E,13E,18Q,22V,28Y,30W,31L]hPYY (4-36)] | 10.6
CC(C)CC(=O)N[C@@H](C)C(=O)N1CCC[C@H]1C(=O)N[C@@H](CCC(=O)O)C(=O)N[C@@H](CCCCNC(=O)COCCOCCNC(=O)COCCOCCNC(=O)CC[C@H](NC(=O)CCCCCCCCCCCCCCCCC(=O)O)C(=O)O)C(=O)N1CCC[C@H]1C(=O)N[C@@H](CCC(=O)O)C(=O)N[C@@H](CCC(=O)O)C(=O)N[C@@H](CC(=O)O)C(=O)N[C@@H](C)C(=O)N[C@@H](CO)C(=O)N1CCC[C@H]1C(=O)N[C@@H](CCC(=O)O)C(=O)N[C@@H](CCC(=O)O)C(=O)N[C@H](C(=O)N[C@@H](CCC(N)=O)C(=O)N[C@@H](CCCNC(=N)N)C(=O)N[C@@H](Cc1ccc(O)cc1)C(=O)N[C@@H](CCC(=O)O)C(=O)N[C@H](C(=O)N[C@@H](CO)C(=O)N[C@@H](CC(C)C)C(=O)N[C@@H](CCCNC(=N)N)C(=O)N[C@@H](Cc1c[nH]cn1)C(=O)N[C@@H](Cc1ccc(O)cc1)C(=O)N[C@@H](Cc1ccc(O)cc1)C(=O)N[C@@H](CC(N)=O)C(=O)N[C@@H](Cc1c[nH]c2ccccc12)C(=O)N[C@@H](CC(C)C)C(=O)N[C@H](C(=O)N[C@@H](CCCNC(=N)N)C(=O)N[C@@H](CCC(N)=O)C(=O)N[C@@H](CCCNC(=N)N)C(=O)N[C@@H](Cc1ccc(O)cc1)C(N)=O)[C@@H](C)O)C(C)C)[C@@H](C)O [Compound 37, N{alpha-4}-(3-methylbutanoyl)-N{epsilon-7}-[2-(2-{2-[2-(2-{2-[(4S)-4-carboxy-4-(17-carboxyheptadecanamido)butanamido]ethoxy}ethoxy)acetamido]ethoxy}ethoxy)acetamido]-[4A,7K,9E,17T,18Q,21E,22V,28Y,30W,31L]hPYY (4-36)] | 4.85
CC(C)CC(=O)N[C@@H](C)C(=O)N1CCC[C@H]1C(=O)N[C@@H](CCC(=O)O)C(=O)N[C@@H](CCCCNC(=O)COCCOCCNC(=O)COCCOCCNC(=O)CC[C@H](NC(=O)CCCCCCCCCCCCCCCCC(=O)O)C(=O)O)C(=O)N1CCC[C@H]1C(=O)N[C@@H](CCC(=O)O)C(=O)N[C@@H](CCC(=O)O)C(=O)N[C@@H](C)C(=O)N[C@@H](C)C(=O)N[C@@H](CO)C(=O)N1CCC[C@H]1C(=O)N[C@@H](CCC(=O)O)C(=O)N[C@@H](CCC(=O)O)C(=O)N[C@@H](CC(C)C)C(=O)N[C@@H](CCC(N)=O)C(=O)N[C@@H](CCCNC(=N)N)C(=O)N[C@@H](Cc1ccc(O)cc1)C(=O)N[C@@H](Cc1ccc(O)cc1)C(=O)N[C@H](C(=O)N[C@@H](CO)C(=O)N[C@H](C(=O)N[C@@H](CCCNC(=N)N)C(=O)N[C@@H](Cc1c[nH]cn1)C(=O)N[C@@H](Cc1ccc(O)cc1)C(=O)N[C@@H](Cc1ccc(O)cc1)C(=O)N[C@@H](CC(N)=O)C(=O)N[C@@H](Cc1c[nH]c2ccccc12)C(=O)N[C@@H](CC(C)C)C(=O)N[C@H](C(=O)N[C@@H](CCCNC(=N)N)C(=O)N[C@@H](CCC(N)=O)C(=O)N[C@@H](CCCNC(=N)N)C(=O)N[C@@H](Cc1ccc(O)cc1)C(N)=O)[C@@H](C)O)[C@@H](C)O)C(C)C [Compound 42, N{alpha-4}-(3-methylbutanoyl)-N{epsilon-7}-[2-(2-{2-[2-(2-{2-[(4S)-4-carboxy-4-(17-carboxyheptadecanamido)butanamido]ethoxy}ethoxy)acetamido]ethoxy}ethoxy)acetamido]-[4A,7K,9E,11A,18Q,22V,24T,28Y,30W,31L]hPYY (4-36)] (Isovaleryl-APEK([AEEA-AEEA-γGlu-C18 diacid])PEEAASPEELQRYYVSTRHYYNWLTRQRY-NH2) | 5.92

The next molecules have a lower Ki than those just listed; values first:

Ki [nM] | SMILES
1.21 | CC(C)CC(=O)N[C@@H](C)C(=O)N1CCC[C@H]1C(=O)N[C@@H](CCC(=O)O)C(=O)N[C@@H](CCCCNC(=O)COCCOCCNC(=O)COCCOCCNC(=O)CC[C@H](NC(=O)CCCCCCCCCCCCCCCCC(=O)O)C(=O)O)C(=O)N1CCC[C@H]1C(=O)N[C@@H](CCC(=O)O)C(=O)N[C@@H](CCC(=O)O)C(=O)N[C@@H](CC(=O)O)C(=O)N[C@@H](C)C(=O)N[C@@H](C)C(=O)N1CCC[C@H]1C(=O)N[C@@H](CCC(=O)O)C(=O)N[C@@H](CCC(=O)O)C(=O)N[C@H](C(=O)N[C@@H](CCC(N)=O)C(=O)N[C@@H](CCCNC(=N)N)C(=O)N[C@@H](Cc1ccc(O)cc1)C(=O)N[C@@H](Cc1ccc(O)cc1)C(=O)N[C@H](C(=O)N[C@@H](CO)C(=O)N[C@@H](CC(C)C)C(=O)N[C@@H](CCCNC(=N)N)C(=O)N[C@@H](Cc1c[nH]cn1)C(=O)N[C@@H](Cc1ccc(O)cc1)C(=O)N[C@@H](Cc1ccc(O)cc1)C(=O)N[C@@H](CC(N)=O)C(=O)N[C@@H](Cc1c[nH]c2ccccc12)C(=O)N[C@@H](CC(C)C)C(=O)N[C@H](C(=O)N[C@@H](CCCNC(=N)N)C(=O)N[C@@H](CCC(N)=O)C(=O)N[C@@H](CCCNC(=N)N)C(=O)N[C@@H](Cc1ccc(O)cc1)C(N)=O)[C@@H](C)O)C(C)C)[C@@H](C)O [Compound 35, N{alpha-4}-(3-methylbutanoyl)-N{epsilon-7}-[2-(2-{2-[2-(2-{2-[(4S)-4-carboxy-4-(17-carboxyheptadecanamido)butanamido]ethoxy}ethoxy)acetamido]ethoxy}ethoxy)acetamido]-[4A,7K,9E,13A,17T,18Q,22V,28Y,30W,31L]hPYY (4-36)]
1.21 | CC(C)CC(=O)N[C@@H](C)C(=O)N1CCC[C@H]1C(=O)N[C@@H](CCC(=O)O)C(=O)N[C@@H](CCCCNC(=O)COCCOCCNC(=O)COCCOCCNC(=O)CC[C@H](NC(=O)CCCCCCCCCCCCCCCCC(=O)O)C(=O)O)C(=O)N1CCC[C@H]1C(=O)N[C@@H](CCC(=O)O)C(=O)N[C@@H](CCC(=O)O)C(=O)N[C@@H](CC(=O)O)C(=O)N[C@@H](C)C(=O)N[C@H](C(=O)N1CCC[C@H]1C(=O)N[C@@H](CCC(=O)O)C(=O)N[C@@H](CCC(=O)O)C(=O)N[C@H](C(=O)N[C@@H](CCC(N)=O)C(=O)N[C@@H](CCCNC(=N)N)C(=O)N[C@@H](Cc1ccc(O)cc1)C(=O)N[C@@H](Cc1ccc(O)cc1)C(=O)N[C@H](C(=O)N[C@@H](CO)C(=O)N[C@@H](CC(C)C)C(=O)N[C@@H](CCCNC(=N)N)C(=O)N[C@@H](Cc1c[nH]cn1)C(=O)N[C@@H](Cc1ccc(O)cc1)C(=O)N[C@@H](Cc1ccc(O)cc1)C(=O)N[C@@H](CC(N)=O)C(=O)N[C@@H](Cc1c[nH]c2ccccc12)C(=O)N[C@@H](CC(C)C)C(=O)N[C@H](C(=O)N[C@@H](CCCNC(=N)N)C(=O)N[C@@H](CCC(N)=O)C(=O)N[C@@H](CCCNC(=N)N)C(=O)N[C@@H](Cc1ccc(O)cc1)C(N)=O)[C@@H](C)O)C(C)C)[C@@H](C)O)[C@@H](C)O [Compound 40, N{alpha-4}-(3-methylbutanoyl)-N{epsilon-7}-[2-(2-{2-[2-(2-{2-[(4S)-4-carboxy-4-(17-carboxyheptadecanamido)butanamido]ethoxy}ethoxy)acetamido]ethoxy}ethoxy)acetamido]-[4A,7K,9E,13T,17T,18Q,22V,28Y,30W,31L]hPYY (4-36)]
